This is an account of results in patent US7759339B2, “Hydroxysteroid dehydrogenase inhibitors” (Takeda San Diego, Inc., priority 2005, dated 2010).

The target in this assay is T1, 11b-HSD1 (Homo sapiens, UniProt P28845).
T1 construct: made in house; host or cells: E. coli DH10b-Tir
Kind of assay: in vitro enzymatic 11b-HSD1 dehydrogenase activity assay. Format: biochemical. Conditions: 11b-HSD1 dehydrogenase assay; 10 μM each of cortisol and NADP+, 50 nM enzyme, 60 minutes at room temperature; reference point for this assay.

T1 sequence (P28845 24-292): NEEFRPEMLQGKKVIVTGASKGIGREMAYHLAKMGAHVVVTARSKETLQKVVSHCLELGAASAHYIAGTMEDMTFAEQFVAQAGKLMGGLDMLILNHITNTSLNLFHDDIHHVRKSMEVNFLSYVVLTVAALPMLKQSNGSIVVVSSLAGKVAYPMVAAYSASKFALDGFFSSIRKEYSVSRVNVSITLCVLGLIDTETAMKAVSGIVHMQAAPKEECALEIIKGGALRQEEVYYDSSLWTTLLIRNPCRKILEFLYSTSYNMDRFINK
Experimental: Provided below is an in vitro enzymatic 11b-HSD1 dehydrogenase activity assay for activity against 11b-HSD1.
The inhibitory properties of compounds relative to 11b-HSD1 may be determined using a white 384-well-plate format under the following reaction conditions: 50 mM Tris pH 7.5, 150 mM NaCl, 0.1 mM EDTA, 0.01% Brij35, 10 μM each of cortisol and NADP^+, 1% DMSO. Reaction product may be determined quantitatively by fluorescence intensity using a fluorescence plate reader (Molecular Devices Gemini) with a 340 nm excitation wavelength and a 460 nm emission wavelength.
The assay reaction may be initiated as follows: 4 μl buffer containing 25 μM cortisol and 25 μM NADP^+ was added to each well of the plate, followed by the addition of 2 μl of inhibitor (2 fold serial dilutions for 11 data points for each inhibitor) containing 5% DMSO. 4 μl of 125 nM 11b-HSD1 enzyme solution may be added to initiate the reaction (final enzyme concentrations was 50 nM). Fluorescence intensities of the resulting reaction mixtures may be measured after 60 minutes incubation at room temperature.
IC50 values may be calculated by non-linear curve fitting of the compound concentrations and fluorescence intensities to the standard IC50 equation.

In turn, `CCN(CC)C(=O)Cc1csc(NS(=O)(=O)c2cccc(Cl)c2C)n1` [BVT14225] returned an IC50 of 500 nM.

As a reminder, the IC50 is the concentration that inhibits the measured activity by half. A high value points to weaker potency.
